Source: ChEMBL document CHEMBL2150967, “Novel Quinolinones as Activators of AMP Activated Protein Kinase: Patent Highlight” (ACS Med Chem Lett, 2012)

Assays:
[1] = target: AMP-activated protein kinase, AMPK (Homo sapiens) (UniProt P54646+O43741+P54619+Q9UGJ0+Q9Y478+Q13131+Q9UGI9); test: (§1) Activation of recombinant human AMPK by FRET assay
[2] = target: AMP-activated protein kinase, AMPK; test: as §1

COc1cccc(-c2ccc(-c3cc4c(O)c(-n5cccn5)c(=O)[nH]c4cc3Cl)cc2)c1
pEC200 [1]: < 5
pEC50 [2]: < 5.5

Cc1nc(-c2c(O)c3cc(-c4ccc(N5CCCCC5)cc4)c(Cl)cc3[nH]c2=O)cs1
pEC200 [1]: < 5
pEC50 [2]: < 5.5

Cc1nc(-c2c(O)c3cc(-c4ccc(N(C)C)cc4)c(Cl)cc3[nH]c2=O)c(C)s1
pEC200 [1]: < 5
pEC50 [2]: < 5.5

Cc1cc(-c2c(O)c3cc(-c4ccc(N(C)C)cc4)c(Cl)cc3[nH]c2=O)no1
pEC200 [1]: < 5
pEC50 [2]: < 5.5

Cc1ccn(-c2c(O)c3cc(-c4ccc(N5CCCC5)cc4)c(Cl)cc3[nH]c2=O)n1
pEC200 [1]: < 5
pEC50 [2]: < 5.5
